Assay results reported in patent publication US20240360082A1, “SUBSTITUTED PYRIDONE COMPOUNDS USEFUL TO TREAT ORTH[…]” (priority 2021, published 2024).

biological target: influenza A virus minigenome (PB2, PB1, PA, NP proteins) (UniProt P04665); assay type: cell-based; details: read-out: RNP_ Hubei B IC50
Sequence (P04665 whole entry): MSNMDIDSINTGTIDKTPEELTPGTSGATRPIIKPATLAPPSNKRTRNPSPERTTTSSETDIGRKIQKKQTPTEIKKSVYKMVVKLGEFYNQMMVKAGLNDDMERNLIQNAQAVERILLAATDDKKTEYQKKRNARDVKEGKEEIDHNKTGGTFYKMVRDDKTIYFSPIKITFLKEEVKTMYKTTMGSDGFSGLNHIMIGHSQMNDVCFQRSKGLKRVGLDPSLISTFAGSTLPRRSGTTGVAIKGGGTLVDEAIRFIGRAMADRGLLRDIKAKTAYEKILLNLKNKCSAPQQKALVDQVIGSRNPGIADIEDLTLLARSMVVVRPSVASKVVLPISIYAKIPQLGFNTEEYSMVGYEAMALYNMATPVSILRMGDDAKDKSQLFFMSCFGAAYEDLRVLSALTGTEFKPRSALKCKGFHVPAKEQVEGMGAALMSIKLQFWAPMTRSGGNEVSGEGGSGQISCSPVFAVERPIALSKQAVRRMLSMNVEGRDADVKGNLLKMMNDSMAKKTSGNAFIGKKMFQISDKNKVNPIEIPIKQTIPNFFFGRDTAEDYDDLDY

Row | Structure (SMILES) | IC50 [µM]
1 | NC(=O)c1cc(-c2ccc(OCCN3CCOC3=O)cc2)c(C(F)(F)F)[nH]c1=O [Example 257, 2-oxo-5-(4-(2-(2-oxooxazolidin-3-yl)ethoxy)phenyl)-6-(trifluoromethyl)-1,2-dihydropyridine-3-carboxamide] | 25 to 50
2 | NC(=O)c1cc(-c2ccc(OCC3COCC(COCC4CC4)O3)cc2)c(C(F)(F)F)[nH]c1=O (single isomer, unassigned) [Example 363, 5-(4-((6-((cyclopropylmethoxy)methyl)-1,4-dioxan-2-yl)methoxy)phenyl)-2-oxo-6-(trifluoromethyl)-1,2-dihydropyridine-3-carboxamide] | 5 to 10
3 | NC(=O)c1cc(-c2ccc(OCC3CO[C@@H]4[C@H](O3)C4(F)F)cc2)c(C(F)(F)F)[nH]c1=O (stereo partly drawn) [Example 390, 5-(4-((cis-7,7-difluoro-2,5-dioxabicyclo[4.1.0]heptan-3-yl)methoxy)phenyl)-2-oxo-6-(trifluoromethyl)-1,2-dihydropyridine-3-carboxamide] | 1 to 5
4 | C[C@]1(CS(=O)(=O)C2CC2)COC[C@@H](COc2ccc(-c3cc(C(N)=O)c(=O)[nH]c3C(F)(F)F)cc2)O1 [Example 413, 5-(4-(((2S,6R)-6-((cyclopropylsulfonyl)methyl)-6-methyl-1,4-dioxan-2-yl)methoxy)phenyl)-2-oxo-6-(trifluoromethyl)-1,2-dihydropyridine-3-carboxamide] | 5 to 10
5 | CC(C)n1cc2c(n1)COCC2COc1ccc(-c2cc(C(N)=O)c(=O)[nH]c2C(F)(F)F)cc1 (single isomer, unassigned) [Example 296, 5-(4-((2-isopropyl-2,4,5,7-tetrahydropyrano[3,4-c]pyrazol-4-yl)methoxy)phenyl)-2-oxo-6-(trifluoromethyl)-1,2-dihydropyridine-3-carboxamide] | 5 to 10
6 | COC[C@]1(C)COC[C@H](COc2ccc(-c3cc(C(N)=O)c(=O)[nH]c3C(F)(F)F)cc2)O1 [Example 407, 5-(4-(((2R,6R)-6-(methoxymethyl)-6-methyl-1,4-dioxan-2-yl)methoxy)phenyl)-2-oxo-6-(trifluoromethyl)-1,2-dihydropyridine-3-carboxamide] | 5 to 10
7 | NC(=O)c1cc(-c2ccc(OCC3COCCOC3)cc2)c(C(F)(F)F)[nH]c1=O [Example 320, 5-(4-((1,4-dioxepan-6-yl)methoxy)phenyl)-2-oxo-6-(trifluoromethyl)-1,2-dihydropyridine-3-carboxamide] | 5 to 10
8 | CN1[C@H](COc2ccc(-c3cc(C(N)=O)c(=O)[nH]c3C(F)(F)F)cc2)COC[C@@H]1C1CC1 [Example 209, 5-(4-(((3S,5S)-5-cyclopropyl-4-methylmorpholin-3-yl)methoxy)phenyl)-2-oxo-6-(trifluoromethyl)-1,2-dihydropyridine-3-carboxamide] | 5 to 10
9 | NC(=O)c1cc(-c2ccc(OCC3COCC(COCC(F)F)O3)cc2)c(C(F)(F)F)[nH]c1=O (single isomer, unassigned) [Example 368, 5-(4-((6-((2,2-difluoroethoxy)methyl)-1,4-dioxan-2-yl)methoxy)phenyl)-2-oxo-6-(trifluoromethyl)-1,2-dihydropyridine-3-carboxamide] | 5 to 10
10 | COCCOc1ccc(-c2cc(C(N)=O)c(=O)[nH]c2C(F)(F)F)cc1 [Example 254, 5-(4-(2-methoxyethoxy)phenyl)-2-oxo-6-(trifluoromethyl)-1,2-dihydropyridine-3-carboxamide] | 25 to 50
11 | C[C@]1(CC(F)F)COC[C@@H](COc2ccc(-c3cc(C(N)=O)c(=O)[nH]c3C(F)(F)F)cc2)O1 [Example 434, 5-(4-(((2S,6S)-6-(2,2-difluoroethyl)-6-methyl-1,4-dioxan-2-yl)methoxy)phenyl)-2-oxo-6-(trifluoromethyl)-1,2-dihydropyridine-3-carboxamide] | 5 to 10
12 | C[C@]1(COCC(F)F)COC[C@@H](COc2ccc(-c3cc(C(N)=O)c(=O)[nH]c3C(F)(F)F)cc2)O1 [Example 431, 5-(4-(((2S,6R)-6-((2,2-difluoroethoxy)methyl)-6-methyl-1,4-dioxan-2-yl)methoxy)phenyl)-2-oxo-6-(trifluoromethyl)-1,2-dihydropyridine-3-carboxamide] | 5 to 10
13 | NC(=O)c1cc(-c2ccc(OCc3ccon3)cc2)c(C(F)(F)F)[nH]c1=O [Example 223, 5-(4-(isoxazol-3-ylmethoxy)phenyl)-2-oxo-6-(trifluoromethyl)-1,2-dihydropyridine-3-carboxamide] | 25 to 50
14 | NC(=O)c1cc(-c2ccc(OCC3COC(CF)CO3)cc2)c(C(F)(F)F)[nH]c1=O (single isomer, unassigned) [Example 342, 5-(4-((5-(fluoromethyl)-1,4-dioxan-2-yl)methoxy)phenyl)-2-oxo-6-(trifluoromethyl)-1,2-dihydropyridine-3-carboxamide] | 5 to 10

same assay, conditions: read-out: RNP_Hubei B

Row | Structure (SMILES) | IC50 [µM]
15 | CN1CCC(COc2ccc(-c3cc(C(N)=O)c(=O)[nH]c3C(F)(F)F)cc2)CC1 [Example 83, 5-(4-((1-methylpiperidin-4-yl)methoxy)phenyl)-2-oxo-6-(trifluoromethyl)-1,2-dihydropyridine-3-carboxamide] | 25 to 50
16 | CC(C)CS(=O)(=O)N1CCCOC(COc2ccc(-c3cc(C(N)=O)c(=O)[nH]c3C(F)(F)F)cc2)C1 (centres unmarked) [Example 198, 5-(4-((4-(isobutylsulfonyl)-1,4-oxazepan-2-yl)methoxy)phenyl)-2-oxo-6-(trifluoromethyl)-1,2-dihydropyridine-3-carboxamide] | 25 to 50
17 | NC(=O)c1cc(-c2ccc(CN3CCCC3)cc2)c(C(F)(F)F)[nH]c1=O [Example 5, 2-oxo-5-(4-(pyrrolidin-1-ylmethyl)phenyl)-6-(trifluoromethyl)-1,2-dihydropyridine-3-carboxamide] | 25 to 50
18 | NC(=O)c1cc(-c2ccc(CN3CCSCC3)cc2)c(C(F)(F)F)[nH]c1=O [Example 28, 2-oxo-5-(4-(thiomorpholinomethyl)phenyl)-6-(trifluoromethyl)-1,2-dihydropyridine-3-carboxamide] | 1 to 5
19 | NC(=O)c1cc(-c2ccc(OCc3cccc(C(F)(F)F)c3)cc2)c(C(F)(F)F)[nH]c1=O [Example 79, 2-oxo-6-(trifluoromethyl)-5-(4-((3-(trifluoromethyl)benzyl)oxy)phenyl)-1,2-dihydropyridine-3-carboxamide] | 5 to 10
20 | NC(=O)c1cc(-c2ccc(CN3CCOCC3)c(F)c2)c(C(F)(F)F)[nH]c1=O [Example 36, 5-(3-fluoro-4-(morpholinomethyl)phenyl)-2-oxo-6-(trifluoromethyl)-1,2-dihydropyridine-3-carboxamide] | 10 to 25
21 | NC(=O)c1cc(-c2ccc(OCC3CCOCC3)cc2)c(C(F)(F)F)[nH]c1=O [Example 56, 2-oxo-5-(4-((tetrahydro-2H-pyran-4-yl)methoxy)phenyl)-6-(trifluoromethyl)-1,2-dihydropyridine-3-carboxamide] | 25 to 50
22 | NC(=O)c1cc(-c2ccc(OCC3CCCOC3)cc2)c(C(F)(F)F)[nH]c1=O (centres unmarked) [Example 102, 2-oxo-5-(4-((tetrahydro-2H-pyran-3-yl)methoxy)phenyl)-6-(trifluoromethyl)-1,2-dihydropyridine-3-carboxamide] | 5 to 10
23 | CC(Oc1ccc(-c2cc(C(N)=O)c(=O)[nH]c2C(F)(F)F)cc1)c1cncnc1 (single isomer, unassigned) [Example 95, (R or S)-2-oxo-5-(4-(1-(pyrimidin-5-yl)ethoxy)phenyl)-6-(trifluoromethyl)-1,2-dihydropyridine-3-carboxamide] | 25 to 50
